# Patent US6184206A, “Integrin ligand dissociators” (The Burnham Institute, priority 1998, dated 2001)
# How the values were obtained:
# purified IIb-IIIa [1] = target: T1, purified IIb-IIIa (Homo sapiens, UniProt P05106+P08514); assay: Competition binding to purified IIb-IIIa immobilized in microtiter plates; details: 125I-Fab-9 challenged with unlabeled fibrinogen (FIG. 1B)
# Method: FIGS. 1A and 1B. Fibrinogen and Fab-9 bind distinct sites on IIb-IIIa. Studies were conducted with purified IIb-IIIa to determine whether Fab-9 (an RGD mimic) and fibrinogen bind to the same site on the integrin. IIb-IIIa was immobilized in microtiter plates and was allowed to bind either ^125 I-fibrinogen (FIG. 1A) or to ^125 I-Fab-9 (FIG. 1B). The binding of ^125 I-fibrinogen was challenged with unlabeled Fab-9. Similarly, the binding of ^125 I-Fab-9 was challenged with unlabeled fibrinogen.
# To determine if fibrinogen and Fab-9 actually bind the same site on IIb-IIIa, a series of competition binding studies were carried out. The ability of the two ligands to compete for binding to IIB-IIIa was measured. Fab-9 blocked the binding of fibrinogen to IIB-IIIa (FIG. 1A). […] These sites are designated as Site I, which binds to Fab-9 and Site II, which interacts with fibrinogen (FIG. 2).
# purified IIb-IIIa [2] = target: T1, purified IIb-IIIa; assay: Surface Plasmon Resonance, real-time dissociation of ligands from IIb-IIIa; type: binding; details: fibrinogen immobilized on sensor chip, without 52012 (FIG. 4B)
# Method: FIGS. 4A and 4B. Measuring the ability of 52012 to dissociate fibrinogen and Fab-9 from IIb-IIIa in real time. Studies were performed with Surface Plasmon Resonance to examine the ability of 52012 to induce the dissociation of ligands from IIb-IIIa. Fab-9 (FIG. 4A) or fibrinogen (FIG. 4B) were immobilized on the sensor chip and then allowed to bind to purified IIb-IIIa. At a specific time, 52012 was introduced by injection into the flow cell.
# In one embodiment, ILDs can be identified by the ability to increase the rate of dissociation between an integrin and its natural ligand, or a known mimic of its natural ligand, with Surface Plasmon Resonance (SPR), for example, using the BIACORE Surface Plasmon Resonance™ instrument. SPR is a technique that measures ligand association and dissociation in "real time." To screen for an ILD using plasmon resonance, the following steps would be taken:
# It is important to note that the configuration of the assay could take several different forms. For example, rather than immobilizing the integrin on the sensor chip, one could immobilize the ligand. In such case, the integrin would be allowed to bind the immobilized ligand prior to measuring dissociation rates.
# To verify the effect of RGD-type ligands on the dissociation of fibrinogen from IIB-IIIa, dissociation rates were measured in real time using Surface Plasmon Resonance (SPR).
# T1 sequence (P08514 32-887 limits assumed): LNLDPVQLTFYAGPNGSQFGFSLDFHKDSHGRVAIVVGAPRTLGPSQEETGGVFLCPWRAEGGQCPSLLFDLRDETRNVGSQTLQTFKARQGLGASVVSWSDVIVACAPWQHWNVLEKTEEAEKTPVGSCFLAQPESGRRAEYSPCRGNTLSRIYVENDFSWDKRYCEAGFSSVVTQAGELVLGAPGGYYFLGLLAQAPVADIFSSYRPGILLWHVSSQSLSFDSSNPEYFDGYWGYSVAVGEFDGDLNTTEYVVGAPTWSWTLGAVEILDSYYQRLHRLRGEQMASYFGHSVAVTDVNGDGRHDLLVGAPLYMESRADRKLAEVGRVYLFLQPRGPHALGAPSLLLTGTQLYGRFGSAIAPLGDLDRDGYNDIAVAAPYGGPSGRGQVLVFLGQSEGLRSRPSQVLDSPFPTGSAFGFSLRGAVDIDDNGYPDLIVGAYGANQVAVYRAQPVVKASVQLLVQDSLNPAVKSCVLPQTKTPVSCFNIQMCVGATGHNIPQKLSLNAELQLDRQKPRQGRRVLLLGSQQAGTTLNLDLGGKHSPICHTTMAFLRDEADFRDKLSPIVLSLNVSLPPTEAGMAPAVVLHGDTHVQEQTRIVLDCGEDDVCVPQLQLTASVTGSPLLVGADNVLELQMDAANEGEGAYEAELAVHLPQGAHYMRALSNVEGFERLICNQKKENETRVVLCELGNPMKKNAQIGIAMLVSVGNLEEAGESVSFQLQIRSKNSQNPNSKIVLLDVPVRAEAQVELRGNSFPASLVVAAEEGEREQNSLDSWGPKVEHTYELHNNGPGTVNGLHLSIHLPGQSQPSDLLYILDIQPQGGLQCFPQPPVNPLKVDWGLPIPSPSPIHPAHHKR
# T1 sequence (P08514 891-1039 limits assumed): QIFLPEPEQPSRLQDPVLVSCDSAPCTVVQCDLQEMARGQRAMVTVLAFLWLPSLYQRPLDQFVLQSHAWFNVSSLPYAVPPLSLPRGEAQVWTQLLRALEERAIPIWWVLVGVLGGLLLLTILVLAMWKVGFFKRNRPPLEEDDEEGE
# T1 sequence (P05106 27-788): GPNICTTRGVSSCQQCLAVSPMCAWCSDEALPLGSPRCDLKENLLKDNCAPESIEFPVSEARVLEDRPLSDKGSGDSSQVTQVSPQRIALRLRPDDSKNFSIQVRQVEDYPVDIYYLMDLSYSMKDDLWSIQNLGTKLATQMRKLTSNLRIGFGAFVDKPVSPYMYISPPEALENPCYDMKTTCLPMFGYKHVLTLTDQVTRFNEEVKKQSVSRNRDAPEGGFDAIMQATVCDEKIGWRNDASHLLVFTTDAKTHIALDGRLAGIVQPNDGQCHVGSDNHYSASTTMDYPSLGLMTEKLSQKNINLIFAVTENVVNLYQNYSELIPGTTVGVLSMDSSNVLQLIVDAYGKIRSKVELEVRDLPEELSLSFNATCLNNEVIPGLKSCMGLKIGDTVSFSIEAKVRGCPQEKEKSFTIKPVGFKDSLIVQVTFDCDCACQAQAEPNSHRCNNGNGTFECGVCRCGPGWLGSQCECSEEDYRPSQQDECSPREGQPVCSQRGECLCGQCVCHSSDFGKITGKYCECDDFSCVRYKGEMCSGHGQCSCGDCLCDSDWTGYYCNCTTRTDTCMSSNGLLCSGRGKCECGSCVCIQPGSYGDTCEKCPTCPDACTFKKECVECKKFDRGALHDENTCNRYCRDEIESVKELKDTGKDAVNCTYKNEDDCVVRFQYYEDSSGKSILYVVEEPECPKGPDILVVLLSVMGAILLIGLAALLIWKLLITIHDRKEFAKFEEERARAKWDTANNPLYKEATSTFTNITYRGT
substance,measurement,setting,value
fibrinogen,blocking of binding of 125I-Fab-9 to IIb-IIIa,purified IIb-IIIa [1],failed to block
same,off-rate of fibrinogen from IIb-IIIa before 52012,purified IIb-IIIa [2],6e-05 s⁻¹
